Data: patent US7625909B2, “Substituted quinazolinone compounds” (Novartis Vaccines and Diagnostics, Inc., priority 2003, dated 2009)
Like-named read-outs stand apart in the source and are kept apart here.

Test: Tissue half-life (t1/2) and Cmax in plasma, brain, kidney and liver after oral administration to CD-1 mice
Type: in vivo
Conditions: 30 mg/kg oral gavage; for half-life: male, mouse
Description: In vivo studies were conducted to observe the effect of the compounds of formula IA, IB, IIA, and IIIB in the subject animal. Male CD-1 mice, body weight of 20 grams at arrival, were used in these studies. Mice were given 30 mg/kg of compound in HPMC/Tween solution or suspension via oral gavage. Plasma, brain, and liver samples were collected at time periods of 1, 2, 4, 8, and 24 hours post dosing. One mouse was used per time point. Thus, a total of 5 mice were used for each compound tested. For sample collection, mice were euthanized with CO2. Blood samples were taken by cardiac puncture and kept on ice. Brain and liver samples were collected immediately after bleeding and the samples were kept on dry ice. For calculation of tissue half-lives (t1/2s), the terminal rate constant k was estimated by the absolute value of the slope of a log-linear regression of the terminal phase of the tissue concentration-time profile. The tissue half-life t1/2 is In(2)/k.
The following table includes t1/2 data for plasma, brain, kidney, and liver obtained after oral administration.

[1] = brain, read-out: Tissue Half-Lives, Brain (converted)
[2] = liver, read-out: Tissue Half-Lives, Liver (converted)
[3] = plasma, read-out: Tissue Half-Lives, Plasma (converted)

Row | SMILES | half-life [1] [h] | half-life [2] [h] | half-life [3] [h] | Tissue Half-Lives, Kidney [h] | also measured
1 | COc1ccc(CCn2c(NC3CC3)nc3cc(NC(=N[C@H]4C[C@H]5C[C@@H]([C@@H]4C)C5(C)C)N4CC(=O)N[C@@H](C)C4)ccc3c2=O)c(F)c1 [Example 224, (3S)-N-{2-(cyclopropylamino)-3-[2-(2-fluoro-4-methoxyphenyl)ethyl]-4-oxo-3,4-dihydroquinazolin-7-yl}-3-methyl-5-oxo-N′-[(1S, 2S, 3S, 5R)-2,6,6-trimethylbicyclo[3.1.1]hept-3-yl]piperazine-1-carboximidamide] |  |  |  |  | Tissue Half-Lives, Liver (liver): 3.1 h
2 | C[C@@H]1[C@@H](N=C(Nc2ccc3c(=O)n(CCc4ccc(Cl)cc4)c(C4CCCNC4)nc3c2)N2CC(=O)N[C@@H](C)C2)C[C@H]2C[C@@H]1C2(C)C (stereo partly drawn) [Example 241, (3S)-N-{3-[2-(4-chlorophenyl)ethyl]-4-oxo-2-piperidin-3-yl-3,4-dihydroquinazolin-7-yl}-3-methyl-5-oxo-N′-[(1S, 2S, 3S, 5R)-2,6,6-trimethylbicyclo[3.1.1]hept-3-yl]piperazine-1-carboximidamide] | 51 | 17 | 21 |  | 
3 | COc1ccc(CCn2c(-c3cccnc3)nc3cc(N/C(=N/C4C[C@H]5C[C@@H]([C@@H]4C)C5(C)C)N4CCN(C#N)[C@@H](C)C4)ccc3c2=O)c(F)c1 (stereo partly drawn) [Example 246, (3S)-4-cyano-N-{3-[2-(2-fluoro-4-methoxyphenyl)ethyl]-4-oxo-2-pyridin-3-yl-3,4-dihydroquinazolin-7-yl}-3-methyl-N-[(1S, 2S, 3S, 5R)-2,6,6-trimethylbicyclo[3.1.1]hept-3-yl]piperazine-1-carboximidamide] |  |  |  |  | Tissue Half-Lives, Brain (brain): 5.8 h
4 | COc1ccc(CCn2c(C#N)nc3cc(NC(=NC4C[C@H]5C[C@@H]([C@@H]4C)C5(C)C)N4CCN[C@@H](CF)C4)ccc3c2=O)c(F)c1 (stereo partly drawn) [Example 256, (3R)-N-{2-cyano-3-[2-(2-fluoro-4-methoxyphenyl)ethyl]-4-oxo-3,4-dihydroquinazolin-7-yl}-3-(fluoromethyl)-N′-[(1S, 2S, 5R)-2,6,6-trimethylbicyclo[3.1.1]hept-3-yl]piperazine-1-carboximidamide] | 15 | 4.3 | 5.4 |  | 
5 | C[C@@H]1[C@@H](/N=C(/Nc2ccc3c(=O)n(CCc4ccc(Cl)cc4Cl)cnc3c2)N2CCNC(=O)C2)C[C@@H]2C[C@H]1C2(C)C [Example 260, N-{3-[2-(2,4-dichlorophenyl)ethyl]-4-oxo-3,4-dihydroquinazolin-7-yl}-3-oxo-N′-[(1R, 2S, 3S, 5S)-2,6,6-trimethylbicyclo[3.1.1]hept-3-yl]piperazine-1-carboximidamide] |  |  |  | 7.3 | 
6 | COc1ccc(CCn2c(-c3cccnc3)nc3cc(N/C(=N/[C@H]4C[C@@H]5C[C@H]([C@@H]4C)C5(C)C)N4C[C@@H](C)N(O)[C@@H](C)C4)ccc3c2=O)c(F)c1 [Example 296, (3R, 5S)-N-[3-{2-[2-fluoro-4-(methyloxy)phenyl]eth-yl}-4-oxo-2-(3-pyridinyl)-3,4-dihydro-7-quinazolinyl]-4-hydroxy-3,5-dimethyl-N′-[(1R, 2S, 3S, 5S)-2,6,6-trimethylbicyclo[3.1.1]hept-3-yl]-1-piperazinecarboximida-mide] |  |  |  | 3.3 | 
